Results from patent US20220249447A1, “CF3-, OCF3-, SCF3-, and SF5-Containing Antibacterial Agents” (Purdue Research Foundation, priority 2019, published 2022).
≈ marks a conversion by molar mass, not a printed value.

Columns and labels:
[1] = tested on: Neisseria gonorrhea strain 181; experiment: MIC against Neisseria gonorrhea strain 181; type: cell-based
Protocol: (§1) Bacteria were cultured in cation-adjusted Mueller Hinton Broth (for strains in Tables 1-3) or Brain Heart Infusion broth (for Enterococcus faecium) or Tryptic Soy Broth (all other bacteria) in a 96-well plate at 37° C. for at least 20 hours. The MIC was classified as the lowest concentration where no visual growth of bacteria was observed. The minimum bactericidal concentration (MBC) was tested by spotting 4 μL from wells with no growth onto Tryptic Soy Agar (TSA) plates. Plates were incubated at 37° C. for at least 18 hours before recording the MBC.

[2] = tested on: MRSA ATCC 33592; experiment: MIC, broth microdilution, MRSA ATCC 33592; type: cell-based, methicillin-resistant S. aureus; settings: Staphylococcus aureus
Protocol: All MRSA isolates were acquired from BEI Resources. The remaining bacteria were purchased from the American Type Culture Collection (ATCC).
as §1

[3] = tested on: S. aureus; experiment: MIC, broth microdilution, S. aureus; type: cell-based; settings: Staphylococcus aureus
Protocol: as §1

MIC [1]	MIC [2]	MIC [3]	MIC ([2]; 20 h)	MIC ([3]; 20 h)	Structure (SMILES)
256 µg/mL (≈ 342 µM)					CC[C@H]1OC(=O)[C@H](C)[C@@H](O[C@H]2C[C@@](C)(OC)[C@@H](O)[C@H](C)O2)[C@H](C)[C@@H](O[C@@H]2O[C@H](C)C[C@H](N(C)C)[C@H]2O)[C@](C)(O)C[C@@H](C)CN(C)[C@H](C)[C@@H](O)[C@]1(C)O [Azithromycin, reference compound]
	32 µg/mL (≈ 94.9 µM)	32 µg/mL (≈ 94.9 µM)			O=C(Nc1nnc(-c2cccs2)o1)c1ccc(OC(F)F)cc1 [HSGN-143, 4-(difluoromethoxy)-N-(5-(thiophen-2-yl)-1,3,4-oxadiazol-2-yl)benzamide]
	8 µg/mL (≈ 23.1 µM)	16 µg/mL (≈ 46.2 µM)			O=C(Nc1nnc(-c2cccs2)o1)c1ncc(C(F)(F)F)s1 [HSGN-168, N-(5-(thiophen-2-yl)-1,3,4-oxadiazol-2-yl)-5-(trifluoromethyl)thiazole-2-carboxamide]
	> 64 µg/mL	> 64 µg/mL			O=C(Nc1nnc(-c2cccs2)o1)c1ccc(C(F)(F)F)o1 [HSGN-169, N-(5-(thiophen-2-yl)-1,3,4-oxadiazol-2-yl)-5-(trifluoromethyl)furan-2-carboxamide]
	2 µg/mL (≈ 5.79 µM)	4 µg/mL (≈ 11.6 µM)			O=C(Nc1nnc(-c2cccs2)o1)c1ccc(C(F)(F)F)s1 [HSGN-170]
	8 µg/mL (≈ 23.5 µM)	16 µg/mL (≈ 47 µM)			O=C(Nc1nnc(-c2cccs2)o1)c1ccc(C(F)(F)F)nc1 [HSGN-171, N-(5-(thiophen-2-yl)-1,3,4-oxadiazol-2-yl)-6-(trifluoromethyl)nicotinamide]
	32 µg/mL (≈ 94 µM)	64 µg/mL (≈ 188 µM)			O=C(Nc1nnc(-c2cccs2)o1)c1ccc(C(F)(F)F)cn1 [HSGN-172, N-(5-(thiophen-2-yl)-1,3,4-oxadiazol-2-yl)-5-(trifluoromethyl)picolinamide]
	> 64 µg/mL	> 64 µg/mL			O=C(Nc1nnc(-c2cccs2)o1)c1cc(C(F)(F)F)n[nH]1 [HSGN-183, N-(5-(thiophen-2-yl)-1,3,4-oxadiazol-2-yl)-3-(trifluoromethyl)-1H-pyrazole-5-carboxamide]
	16 µg/mL (≈ 47 µM)	16 µg/mL (≈ 47 µM)			O=C(Nc1nnc(-c2cccs2)o1)c1cccc(C(F)(F)F)n1 [HSGN-184, N-(5-(thiophen-2-yl)-1,3,4-oxadiazol-2-yl)-6-(trifluoromethyl)picolinamide]
	32 µg/mL (≈ 93.8 µM)	32 µg/mL (≈ 93.8 µM)			O=C(Nc1nnc(-c2cccs2)o1)c1cnc(C(F)(F)F)nc1 [HSGN-190, N-(5-(thiophen-2-yl)-1,3,4-oxadiazol-2-yl)-2-(trifluoromethyl)pyrimidine-5-carboxamide]
	32 µg/mL (≈ 87.4 µM)	32 µg/mL (≈ 87.4 µM)			O=C(Nc1nnc(-c2cccnc2)o1)c1ccc(SC(F)(F)F)cc1 [HSGN-206, N-(5-(pyridin-3-yl)-1,3,4-oxadiazol-2-yl)-4-((trifluoromethyl)thio)benzamide]
	8 µg/mL (≈ 20.2 µM)	16 µg/mL (≈ 40.5 µM)			COc1ccc(-c2nnc(NC(=O)c3ccc(SC(F)(F)F)cc3)o2)cc1 [HSGN-207, N-(5-(4-methoxyphenyl)-1,3,4-oxadiazol-2-yl)-4-((trifluoromethyl)thio)benzamide]
	0.25 µg/mL (≈ 0.599 µM)	0.125 µg/mL (≈ 0.3 µM)			O=C(Nc1nnc(-c2ccc(C(F)(F)F)cc2)o1)c1ccc(OC(F)(F)F)cc1 [HSGN-220, 4-(trifluoromethoxy)-N-(5-(4-(trifluoromethyl)phenyl)-1,3,4-oxadiazol-2-yl)benzamide]
	2 µg/mL (≈ 5.66 µM)	4 µg/mL (≈ 11.3 µM)			O=C(Nc1nnc(-c2cccs2)o1)c1ccc(SC(F)F)cc1 [HSGN-250, 4-((difluoromethyl)thio)-N-(5-(thiophen-2-yl)-1,3,4-oxadiazol-2-yl)benzamide]
	8 µg/mL (≈ 25.2 µM)	16 µg/mL (≈ 50.4 µM)			CSc1ccc(C(=O)Nc2nnc(-c3cccs3)o2)cc1 [HSGN-251, 4-(methylthio)-N-(5-(thiophen-2-yl)-1,3,4-oxadiazol-2-yl)benzamide]
	1 µg/mL (≈ 2.33 µM)	2 µg/mL (≈ 4.65 µM)			COc1ccc(Cl)cc1-c1nnc(NC(=O)c2ccc(SC(F)(F)F)cc2)o1 [HSGN-252, N-(5-(5-chloro-2-methoxyphenyl)-1,3,4-oxadiazol-2-yl)-4-((trifluoromethyl)thio)benzamide]
	> 64 µg/mL	> 64 µg/mL			O=S(=O)(Nc1nnc(-c2cccc(Cl)c2)o1)c1ccc(S(F)(F)(F)(F)F)cc1 [HSGN-255, N-(5-(3-chlorophenyl)-1,3,4-oxadiazol-2-yl)-4-(pentafluoro-δ6-sulfaneyl)benzenesulfonamide]
	> 64 µg/mL	> 64 µg/mL			O=S(=O)(Nc1nnc(-c2cccc(Cl)c2)o1)c1ccc(SC(F)(F)F)cc1 [HSGN-256, N-(5-(3-chlorophenyl)-1,3,4-oxadiazol-2-yl)-4-((trifluoromethyl)thio)benzenesulfonamide]
	> 64 µg/mL	> 64 µg/mL			O=C(Nc1noc(-c2ccc(C(F)(F)F)cc2)n1)c1ccc(SC(F)(F)F)cc1 [HSGN-257, N-(5-(4-(trifluoromethyl)phenyl)-1,2,4-oxadiazol-3-yl)-4-((trifluoromethyl)thio)benzamide]

MIC [1]	MIC [2]	MIC [3]	MIC ([2]; 20 h)	MIC ([3]; 20 h)	Structure (SMILES)
	2 µg/mL (≈ 5.19 µM)	2 µg/mL (≈ 5.19 µM)			Cc1ccc(-c2nnc(NC(=O)c3ccc(SC(F)(F)F)cc3)o2)s1 [HSGN-258, N-(5-(5-methylthiophen-2-yl)-1,3,4-oxadiazol-2-yl)-4-((trifluoromethyl)thio)benzamide]
			> 64 µg/mL	> 64 µg/mL	FC(F)(F)Sc1ccc(-n2cc(-c3nnc(-c4cccc(Cl)c4)o3)nn2)cc1 [HSGN-260]
	16 µg/mL (≈ 37.3 µM)	16 µg/mL (≈ 37.3 µM)			O=C(Nc1nnc(-c2cccc(Cl)c2)o1)c1ccc(OC(F)(F)F)c([N+](=O)[O-])c1 [HSGN-262, N-(5-(3-chlorophenyl)-1,3,4-oxadiazol-2-yl)-3-nitro-4-(trifluoromethoxy)benzamide]
	0.5 µg/mL (≈ 1.16 µM)	0.5 µg/mL (≈ 1.16 µM)			COc1cc(Cl)cc(-c2nnc(NC(=O)c3ccc(SC(F)(F)F)cc3)o2)c1 [HSGN-266, N-(5-(3-chloro-5-methoxyphenyl)-1,3,4-oxadiazol-2-yl)-4-((trifluoromethyl)thio)benzamide]
	1 µg/mL (≈ 2.74 µM)	1 µg/mL (≈ 2.74 µM)			O=C(Nc1nnc(-c2ccccc2)o1)c1ccc(SC(F)(F)F)cc1 [HSGN-280, N-(5-phenyl-1,3,4-oxadiazol-2-yl)-4-((trifluoromethyl)thio)benzamide]
	0.0625 µg/mL (≈ 0.163 µM)	0.0625 µg/mL (≈ 0.163 µM)			O=C(Nc1nnc(-c2ccc(F)cc2)o1)c1ccc(SC(F)(F)F)cc1 [HSGN-281, N-(5-(4-fluorophenyl)-1,3,4-oxadiazol-2-yl)-4-((trifluoromethyl)thio)benzamide]
	0.0625 µg/mL (≈ 0.156 µM)	0.0625 µg/mL (≈ 0.156 µM)			O=C(Nc1nnc(-c2ccc(Cl)cc2)o1)c1ccc(SC(F)(F)F)cc1 [HSGN-282, N-(5-(4-chlorophenyl)-1,3,4-oxadiazol-2-yl)-4-((trifluoromethyl)thio)benzamide]
	0.0625 µg/mL (≈ 0.16 µM)	0.0625 µg/mL (≈ 0.16 µM)			N#Cc1cccc(-c2nnc(NC(=O)c3ccc(SC(F)(F)F)cc3)o2)c1 [HSGN-283, N-(5-(3-cyanophenyl)-1,3,4-oxadiazol-2-yl)-4-((trifluoromethyl)thio)benzamide]
	1 µg/mL (≈ 2.5 µM)	1 µg/mL (≈ 2.5 µM)			O=C(Nc1nnc(-c2cccc(Cl)c2)o1)c1cccc(SC(F)(F)F)c1 [HSGN-2111, N-(5-(3-chlorophenyl)-1,3,4-oxadiazol-2-yl)-3-((trifluoromethyl)thio)benzamide]
	0.5 µg/mL (≈ 1.17 µM)	0.5 µg/mL (≈ 1.17 µM)			O=C(Nc1nnc(-c2cccc(Cl)c2)o1)c1cccc(S(F)(F)(F)(F)F)c1 [HSGN-2112, N-(5-(3-chlorophenyl)-1,3,4-oxadiazol-2-yl)-3-(pentafluoro-λ^6-sulfaneyl)benzamide]
	0.25 µg/mL (≈ 0.579 µM)	0.25 µg/mL (≈ 0.579 µM)			O=C(Nc1nnc(-c2ccc(Cl)s2)o1)c1ccc(S(F)(F)(F)(F)F)cc1 [HSGN-2113, N-(5-(5-chlorothiophen-2-yl)-1,3,4-oxadiazol-2-yl)-4-(pentafluoro-λ^6-sulfaneyl)benzamide]
	0.5 µg/mL (≈ 1.3 µM)	0.5 µg/mL (≈ 1.3 µM)			O=C(Nc1nnc(-c2ccccc2F)o1)c1ccc(SC(F)(F)F)cc1 [HSGN-2114, N-(5-(2-fluorophenyl)-1,3,4-oxadiazol-2-yl)-4-((trifluoromethyl)thio)benzamide]
	0.5 µg/mL (≈ 1.25 µM)	0.5 µg/mL (≈ 1.25 µM)			O=C(Nc1nnc(-c2ccccc2Cl)o1)c1ccc(SC(F)(F)F)cc1 [HSGN-2115, N-(5-(2-chlorophenyl)-1,3,4-oxadiazol-2-yl)-4-((trifluoromethyl)thio)benzamide]
	> 128 µg/mL	> 128 µg/mL			O=C(Nc1cnn(-c2ccccc2)c1)c1ccc(S(F)(F)(F)(F)F)cc1 [HSGN-2135, 4-(pentafluoro-λ^6-sulfaneyl)-N-(1-phenyl-1H-pyrazol-4-yl)benzamide]
	> 128 µg/mL	> 128 µg/mL			O=C(Nc1nnn(Cc2ccccc2)n1)c1ccc(S(F)(F)(F)(F)F)cc1 [HSGN-2136, N-(2-benzyl-2H-tetrazol-5-yl)-4-(pentafluoro-λ^6-sulfaneyl)benzamide]
	1 µg/mL (≈ 3.04 µM)	1 µg/mL (≈ 3.04 µM)			Cc1nnc(NC(=O)c2ccc(S(F)(F)(F)(F)F)cc2)o1 [HSGN-2140, N-(5-methyl-1,3,4-oxadiazol-2-yl)-4-(pentafluoro-λ^6-sulfaneyl)benzamide]
	32 µg/mL (≈ 83.5 µM)	32 µg/mL (≈ 83.5 µM)			O=C(Nc1nnc(C(F)(F)F)o1)c1ccc(S(F)(F)(F)(F)F)cc1 [HSGN-2141, 4-(pentafluoro-λ^6-sulfaneyl)-N-(5-(trifluoromethyl)-1,3,4-oxadiazol-2-yl)benzamide]
	0.5 µg/mL (≈ 1.4 µM)	1 µg/mL (≈ 2.8 µM)			CCCc1nnc(NC(=O)c2ccc(S(F)(F)(F)(F)F)cc2)o1 [HSGN-2142, 4-(pentafluoro-λ^6-sulfaneyl)-N-(5-propyl-1,3,4-oxadiazol-2-yl)benzamide]
	1 µg/mL (≈ 2.61 µM)	2 µg/mL (≈ 5.22 µM)			O=C(Nc1nnc(C2CCCC2)o1)c1ccc(S(F)(F)(F)(F)F)cc1 [HSGN-2143, N-(5-cyclopentyl-1,3,4-oxadiazol-2-yl)-4-(pentafluoro-16-sulfaneyl)benzamide]
